Source: PubChem BioAssay AID256 (DTP/NCI, 2004)
“And” between values parts separate entries of the source, which are not always exact repeats. Identical values can stand only once. Toxic doses and inconclusive results are not listed.

System: CD2F1 mice, L1210 leukemia ip, survival T/C
Test: NCI In Vivo Anticancer Drug Screen. Data for tumor model L1210 Leukemia (intraperitoneal) in CD2F1 (CDF1) mice
Settings: higher = longer survival
In short: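 Transplantable tumor in mice; compound-treated vs vehicle-treated groups. Read-out = treated/control ratio of the measured endpoint.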

[1] = endpoint: mean survival time, dose: 100.0 mg/kg/injection, schedule: Q04DX003 (ip), vehicle: saline with Tween-80
[2] = endpoint: mean survival time, dose: 200.0 mg/kg/injection, schedule: Q04DX003 (ip), vehicle: saline with Tween-80
[3] = endpoint: mean survival time, dose: 400.0 mg/kg/injection, schedule: Q04DX003 (ip), vehicle: saline with Tween-80
[4] = endpoint: mean survival time, dose: 50.0 mg/kg/injection, schedule: Q04DX002 (ip), vehicle: saline with Tween-80
[5] = endpoint: mean survival time, dose: 75.0 mg/kg/injection, schedule: Q01DX001 (ip), vehicle: saline
[6] = endpoint: mean survival time, dose: 150.0 mg/kg/injection, schedule: Q01DX001 (ip), vehicle: saline

## CC(C)(C)NC(=O)NCCCN1CCOCC1
endpoint: mean survival time, dose: 100.0 mg/kg/injection, schedule: Q01DX009 (ip), vehicle: saline
  T/C: 102 % of control
endpoint: mean survival time, dose: 200.0 mg/kg/injection, schedule: Q01DX009 (ip), vehicle: saline
  T/C: 98 % of control
endpoint: mean survival time, dose: 400.0 mg/kg/injection, schedule: Q01DX009 (ip), vehicle: saline
  T/C: 91 % of control

## O=C(O)Cc1cccc2c(=O)cc(-c3ccccc3)oc12
endpoint: median survival time, dose: 12.5 mg/kg/injection, schedule: Q01DX009 (ip), vehicle: suspension in saline
  T/C: 113 % of control and 109 % of control
endpoint: median survival time, dose: 25.0 mg/kg/injection, schedule: Q01DX009 (ip), vehicle: suspension in saline
  T/C: 113 % of control and 105 % of control
endpoint: median survival time, dose: 30.0 mg/kg/injection, schedule: Q01DX009 (ip), vehicle: saline with Tween-80
  T/C: 112 % of control
endpoint: median survival time, dose: 30.0 mg/kg/injection, schedule: Q01DX009 (ip), vehicle: sodium bicarbonate
  T/C: 100 % of control
endpoint: median survival time, dose: 44.0 mg/kg/injection, schedule: Q01DX009 (ip), vehicle: saline with Tween-80
  T/C: 123 % of control
endpoint: median survival time, dose: 44.0 mg/kg/injection, schedule: Q01DX009 (ip), vehicle: sodium bicarbonate
  T/C: 113 % of control
endpoint: median survival time, dose: 45.0 mg/kg/injection, schedule: Q01DX009 (ip), vehicle: sodium bicarbonate
  T/C: 107 % of control
endpoint: median survival time, dose: 50.0 mg/kg/injection, schedule: Q01DX009 (ip), vehicle: suspension in saline
  T/C: 116 % of control
endpoint: median survival time, dose: 67.0 mg/kg/injection, schedule: Q01DX001 (ip), vehicle: sodium bicarbonate
  T/C: 101 % of control
endpoint: median survival time, dose: 67.0 mg/kg/injection, schedule: Q01DX009 (ip), vehicle: sodium bicarbonate
  T/C: 113 % of control and 112 % of control
endpoint: median survival time, dose: 100.0 mg/kg/injection, schedule: Q01DX001 (ip), vehicle: sodium bicarbonate
  T/C: 108 % of control
endpoint: median survival time, dose: 100.0 mg/kg/injection, schedule: Q01DX009 (ip), vehicle: saline with Tween-80
  T/C: 124 % of control
endpoint: median survival time, dose: 100.0 mg/kg/injection, schedule: Q01DX009 (ip), vehicle: sodium bicarbonate
  T/C: 119 % of control and 124 % of control
endpoint: median survival time, dose: 100.0 mg/kg/injection, schedule: Q01DX009 (ip), vehicle: suspension in saline
  T/C: 113 % of control
endpoint: median survival time, dose: 150.0 mg/kg/injection, schedule: Q01DX001 (ip), vehicle: sodium bicarbonate
  T/C: 112 % of control
endpoint: median survival time, dose: 150.0 mg/kg/injection, schedule: Q01DX009 (ip), vehicle: saline with Tween-80
  T/C: 108 % of control
endpoint: median survival time, dose: 175.0 mg/kg/injection, schedule: Q01DX009 (ip), vehicle: sodium bicarbonate
  T/C: 156 % of control
endpoint: median survival time, dose: 200.0 mg/kg/injection, schedule: Q01DX009 (ip), vehicle: suspension in saline
  T/C: 103 % of control
endpoint: median survival time, dose: 223.0 mg/kg/injection, schedule: Q01DX001 (ip), vehicle: sodium bicarbonate
  T/C: 108 % of control
endpoint: median survival time, dose: 333.0 mg/kg/injection, schedule: Q01DX001 (ip), vehicle: sodium bicarbonate
  T/C: 121 % of control

## CCCSP(SCCC)SCCC
endpoint: mean survival time, dose: 50.0 mg/kg/injection, schedule: Q01DX001 (ip), vehicle: Klucel (hydroxypropylcellulose) (HPC)
  T/C: 107 % of control
endpoint: mean survival time, dose: 100.0 mg/kg/injection, schedule: Q01DX001 (ip), vehicle: Klucel (hydroxypropylcellulose) (HPC)
  T/C: 96 % of control
endpoint: mean survival time, dose: 200.0 mg/kg/injection, schedule: Q01DX001 (ip), vehicle: Klucel (hydroxypropylcellulose) (HPC)
  T/C: 101 % of control

## O=c1[nH]ccn1C1CCCCC1
endpoint: mean survival time, dose: 50.0 mg/kg/injection, schedule: Q01DX001 (ip), vehicle: other
  T/C: 100 % of control
endpoint: mean survival time, dose: 100.0 mg/kg/injection, schedule: Q01DX001 (ip), vehicle: other
  T/C: 96 % of control and 97 % of control
endpoint: mean survival time, dose: 200.0 mg/kg/injection, schedule: Q01DX001 (ip), vehicle: other
  T/C: 97 % of control and 100 % of control

## C#CCNc1ncnc2c1ncn2C1OC(CO)C(O)C1O (configuration not stated)
endpoint: mean survival time, dose: 12.5 mg/kg/injection, schedule: Q01DX005 (ip), vehicle: other
  T/C: 96 % of control
endpoint: mean survival time, dose: 25.0 mg/kg/injection, schedule: Q01DX005 (ip), vehicle: other
  T/C: 97 % of control
endpoint: mean survival time, dose: 50.0 mg/kg/injection, schedule: Q01DX005 (ip), vehicle: other
  T/C: 111 % of control
endpoint: mean survival time, dose: 100.0 mg/kg/injection, schedule: Q01DX005 (ip), vehicle: other
  T/C: 114 % of control
endpoint: mean survival time, dose: 200.0 mg/kg/injection, schedule: Q01DX005 (ip), vehicle: other
  T/C: 111 % of control

## CC([NH-])Cc1ccccc1.CC([NH-])Cc1ccccc1.[Cl][Pt+2][Cl] (configuration not stated)
endpoint: mean survival time, dose: 3.13 mg/kg/injection, schedule: Q04DX003 (ip), vehicle: distilled water + Tween-80
  T/C: 96 % of control
endpoint: mean survival time, dose: 6.25 mg/kg/injection, schedule: Q04DX003 (ip), vehicle: distilled water + Tween-80
  T/C: 96 % of control
endpoint: mean survival time, dose: 12.5 mg/kg/injection, schedule: Q04DX003 (ip), vehicle: distilled water + Tween-80
  T/C: 96 % of control
endpoint: mean survival time, dose: 25.0 mg/kg/injection, schedule: Q04DX003 (ip), vehicle: distilled water + Tween-80
  T/C: 86 % of control
endpoint: mean survival time, dose: 50.0 mg/kg/injection, schedule: Q04DX003 (ip), vehicle: distilled water + Tween-80
  T/C: 86 % of control
endpoint: mean survival time, dose: 100.0 mg/kg/injection, schedule: Q04DX003 (ip), vehicle: distilled water + Tween-80
  T/C: 96 % of control
endpoint: mean survival time, dose: 200.0 mg/kg/injection, schedule: Q04DX003 (ip), vehicle: distilled water + Tween-80
  T/C: 89 % of control

## CC(C)(C)n1cc(C(=O)c2ccccc2)cc1-c1ccccc1
[1]
  T/C: 91 % of control
[2]
  T/C: 92 % of control
[3]
  T/C: 86 % of control

## N#[N+]c1c(C(=O)O)[nH]c(=O)[nH]c1=O
endpoint: mean survival time, dose: 12.5 mg/kg/injection, schedule: Q01DX009 (ip), vehicle: saline with Tween-80
  T/C: 100 % of control
endpoint: mean survival time, dose: 12.5 mg/kg/injection, schedule: Q04DX003 (ip), vehicle: saline with Tween-80
  T/C: 101 % of control
endpoint: mean survival time, dose: 25.0 mg/kg/injection, schedule: Q01DX009 (ip), vehicle: saline with Tween-80
  T/C: 91 % of control
endpoint: mean survival time, dose: 25.0 mg/kg/injection, schedule: Q04DX003 (ip), vehicle: saline with Tween-80
  T/C: 102 % of control
endpoint: mean survival time, dose: 50.0 mg/kg/injection, schedule: Q01DX009 (ip), vehicle: saline with Tween-80
  T/C: 96 % of control

## CC12C=CC(=O)C=C1CCCC2 (configuration not stated)
endpoint: mean survival time, dose: 12.5 mg/kg/injection, schedule: Q04DX002 (ip), vehicle: saline with Tween-80
  T/C: 96 % of control
endpoint: mean survival time, dose: 25.0 mg/kg/injection, schedule: Q04DX002 (ip), vehicle: saline with Tween-80
  T/C: 91 % of control
[4]
  T/C: 96 % of control

## COC(=O)CC1C2CCc3cc(OC)ccc3C2CCC1(C)C(=O)OC (configuration not stated)
endpoint: mean survival time, dose: 100.0 mg/kg/injection, schedule: Q01DX009 (ip), vehicle: saline with Tween-80
  T/C: 97 % of control
endpoint: mean survival time, dose: 200.0 mg/kg/injection, schedule: Q01DX009 (ip), vehicle: saline with Tween-80
  T/C: 101 % of control
endpoint: mean survival time, dose: 400.0 mg/kg/injection, schedule: Q01DX009 (ip), vehicle: saline with Tween-80
  T/C: 94 % of control

## CC1(C)CC(=O)C2=C(C1)OC1=C(C(=O)CC(C)(C)C1)C2c1ccccc1Cl
[1]
  T/C: 102 % of control
[2]
  T/C: 100 % of control
[3]
  T/C: 104 % of control

## CC(=O)OCC1OC(N2C(=O)/C(=C/c3ccc([N+](=O)[O-])cc3)SC2=S)C(OC(C)=O)C(OC(C)=O)C1OC(C)=O (configuration not stated)
endpoint: mean survival time, dose: 0.78 mg/kg/injection, schedule: Q01DX005 (ip), vehicle: distilled water + Tween-80
  T/C: 96 % of control
endpoint: mean survival time, dose: 1.56 mg/kg/injection, schedule: Q01DX005 (ip), vehicle: distilled water + Tween-80
  T/C: 93 % of control
endpoint: mean survival time, dose: 3.13 mg/kg/injection, schedule: Q01DX005 (ip), vehicle: distilled water + Tween-80
  T/C: 93 % of control
endpoint: mean survival time, dose: 6.25 mg/kg/injection, schedule: Q01DX005 (ip), vehicle: distilled water + Tween-80
  T/C: 90 % of control
endpoint: mean survival time, dose: 12.5 mg/kg/injection, schedule: Q01DX005 (ip), vehicle: distilled water + Tween-80
  T/C: 93 % of control

## CCCCC(=O)C(=O)OC(OC(=O)C(=O)CCCC)c1ccccc1
[5]
  T/C: 93 % of control
[6]
  T/C: 97 % of control

## CCC1COCC1Cc1cncn1C (configuration not stated)
[5]
  T/C: 97 % of control
[6]
  T/C: 101 % of control
endpoint: mean survival time, dose: 300.0 mg/kg/injection, schedule: Q01DX001 (ip), vehicle: saline
  T/C: 100 % of control

## COC1=CC2=C3[C@H](Cc4cc5c(c(c4)Oc4ccc(cc4)C[C@H]4c6cc7c(cc6CCN4C)OCC3(O7)C1=O)OCO5)N(C)CC2 (some centres not stated)
endpoint: mean survival time, dose: 50.0 mg/kg/injection, schedule: Q04DX003 (ip), vehicle: saline with Tween-80
  T/C: 96 % of control
[1]
  T/C: 98 % of control
[2]
  T/C: 96 % of control

## CC(C)(C)OC(=O)NCCCC(=O)O
[1]
  T/C: 93 % of control
[2]
  T/C: 90 % of control

## COC1=C(Br)C(O)C2(C=C1Br)CC(C(=O)NCCCCNC(=O)C1=NOC3(C=C(Br)C(OC)=C(Br)C3O)C1)=NO2 (configuration not stated)
[4]
  T/C: 94 % of control
endpoint: mean survival time, dose: 100.0 mg/kg/injection, schedule: Q04DX002 (ip), vehicle: saline with Tween-80
  T/C: 94 % of control
endpoint: mean survival time, dose: 200.0 mg/kg/injection, schedule: Q04DX002 (ip), vehicle: saline with Tween-80
  T/C: 97 % of control
endpoint: mean survival time, dose: 400.0 mg/kg/injection, schedule: Q04DX002 (ip), vehicle: saline with Tween-80
  T/C: 86 % of control
